Laboratory results taken from patent US5470883A (priority 1994, dated 1995).
Structures can show the parent of a compound that is named as a salt. Where two headings read alike, the source gives them in different places.

How the values were obtained:
[1] = test system: epinephrine vasoconstriction, central artery of the rabbit ear; experiment: Transcutaneous oxygen monitor assessment of distal peripheral oxygen tension after epinephrine injection around the central artery of the rabbit ear; format: in vivo, New Zealand adult white rabbits; conditions: for effect of pretreatment on epinephrine-induced fall in peripheral blood flow / vasoconstriction: pretreatment two days, then epinephrine, estradiol 0.1 mg/kg/day, tamoxifen 2.0 mg/kg/day
Protocol: A study utilizing 18 New Zealand adult white rabbits was performed. […] This was injected through a 27 gauge needle directly surrounding the central artery of the rabbit ear. Distally peripheral tissue oxygen tension was assessed utilizing a precalibrated transcutaneous oxygen monitor. Measurements were taken prior to injection to maintenance of a steady state. If a steady state was not reached the experiment was discontinued and retried at a later time. Post-injection measurements were taken until the return to baseline levels or up to two hours post-injection. Measurements were taken at five minute intervals preinjection and at three minute intervals post-injection. Control injections utilized 0.1 cc. of intravenous saline solution.
In the second phase, six rabbits were used. The animals were pretreated with intravenous injections of estradiol (0.1 mg/kg/day) for two days.
In phase three, animals from the second group were treated with estradiol and tamoxifen was added (2.0 mg/kg/day) for two days after allowing three weeks for the original estradiol to wash out. Another group of six animals was pretreated with tamoxifen alone (2.0 mg/kg/day) for two days.

[2] = 100 to 200 times the recommended daily dose; cited from earlier work
breast cancer = conditions: cited from earlier work
[3] = mild to moderate renal failure; cited from earlier work
[4] = humans; cited from earlier work
[5] = test system: tumor cultures without estrogen receptors; conditions: cited from earlier work
[6] = test system: mammary carcinoma in rats induced by DMBA; conditions: cited from earlier work
perfused rat mesentary = conditions: cited from earlier work
renal cortical necrosis = conditions: induced by estrogen plus vasopression; cited from earlier work
[7] = test system: estrogen-dependent breast cancer cell cultures; conditions: cited from earlier work
[8] = cited from earlier work
[9] = single oral dose approximately 0.3 mg/kg

C[C@]12CC[C@@H]3c4ccc(O)cc4CC[C@H]3[C@@H]1CC[C@@H]2O [estradiol]
effect of pretreatment on epinephrine-induced fall in peripheral blood flow / vasoconstriction [1]: statistically similar fall in the peripheral blood flow as compared to those animals treated with epinephrine alone

CC/C(=C(\c1ccccc1)c1ccc(OCCN(C)C)cc1)c1ccccc1 [tamoxifen citrate, (Z)2-[4-(1,2-diphenyl-1-butenyl)phenoxy]-N, N-dimethylethanamine 2-hydroxy-1,2,3-propranetricarboxylate (1:1)]
overdose toxicity [2]: respiratory difficulties and convulsions
anti-tumor effect at higher dose (breast cancer; 40 mg per day, metastatic breast cancer to the lung): higher anti-tumor effect
improvement at higher daily doses (breast cancer; 80 mg daily): have not generally resulted in greater improvement
delay of recurrence (breast cancer; following total mastectomy and axillary dissection or segmental mastectomy, axillary dissection, and breast radiation, axillary node-negative breast cancer): effective in delaying the reoccurence
delay of recurrence (breast cancer; following total mastectomy and axillary dissection, post-menopausal women): effective in delaying reoccurence
effect of pretreatment on epinephrine-induced fall in peripheral blood flow / vasoconstriction [1]: completely reversed the vasoconstrictive effects of epinephrine
effect of pretreatment on epinephrine-induced fall in peripheral blood flow / vasoconstriction ([1]; listed as tamoxifen (Nolvadex)): completely inhibited
dose adjustment in renal failure [3]: dose adjustments are not needed in mild to moderate renal failure
overdose cases [4]: no cases of tamoxifen citrate overdose have been reported in humans
effect in tumor cultures [5]: no significant effect
frequency of tumor development ([6]; administered with DMBA): decreases the frequency of tumor development
effect on DMBA-induced mammary carcinoma ([6]; rats): inhibit or reverse mammary carcinoma in rats
calcium antagonism (perfused rat mesentary): calcium antagonist in perfused rat mesentary
effect on development of renal cortical necrosis (renal cortical necrosis): have an effect on the development of renal cortical necrosis
cell reproduction [7]: inhibit cell reproduction
unchanged drug and hydroxylated metabolites, share of total excreted ([8]; excreted mainly as conjugates): 30%
distribution half life ([8]; human, in vivo): 7 to 14 h
elimination half-life ([8]; human, in vivo): greater than 7 days
excretion in urine ([8]; in vivo): only small amounts are excreted in the urine
metabolism ([8]; in vivo): metabolised in the liver
absorption from the gastrointestinal tract ([8]; oral): well-absorbed from the gastrointestinal tract
excretion of radioactivity in the feces ([8]; radiolabeled tamoxifen citrate, person): most of the radioactivity is slowly excreted in the feces with only small amounts appearing in the urine
initial half-life [8, 9]: 7 to 14 h
peak blood level of total radioactivity [8, 9]: 0.06-0.14 micrograms/mL
secondary peaks, time [8, 9]: four
time of peak blood level of total radioactivity [8, 9]: 4 to 7 h

CNC[C@H](O)c1ccc(O)c(O)c1 [epinephrine]
decreased blood flow, % of the preinjection level ([1]; epinephrine 0.1 cc, 1:50,000): 50%
tissue necrosis ([1]; epinephrine 0.1 cc, 1:50,000): In no case was there any tissue necrosis
